Where “and” joins values, the source holds several entries; their conditions need not be identical. Equal entries are not always repeated. Inconclusive results and toxic doses are left out. Rule as the data show it: active = T/C of 150% or more; inactive = T/C below 125%.
Tested on: L1210 leukemia ip in BDF1 mice, survival T/C
Assay: NCI In Vivo Anticancer Drug Screen. Data for tumor model L1210 Leukemia (intraperitoneal) in B6D2F1 (BDF1) mice
Conditions: endpoint: mean survival time, higher = longer survival
Summary of the method: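 Ratio derived from survival: compound-dosed mice over vehicle-dosed mice, all bearing a transplantable tumor.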

[1] = dose: 50.0 mg/kg/injection, schedule: Q01DX009 (ip), vehicle: saline with Tween-80
[2] = dose: 100.0 mg/kg/injection, schedule: Q01DX009 (ip), vehicle: saline with Tween-80
[3] = dose: 100.0 mg/kg/injection, schedule: Q04DX003 (ip), vehicle: Klucel (hydroxypropylcellulose) (HPC)
[4] = dose: 200.0 mg/kg/injection, schedule: Q04DX003 (ip), vehicle: Klucel (hydroxypropylcellulose) (HPC)
[5] = dose: 400.0 mg/kg/injection, schedule: Q04DX003 (ip), vehicle: Klucel (hydroxypropylcellulose) (HPC)
[6] = dose: 25.0 mg/kg/injection, schedule: Q01DX009 (ip), vehicle: saline with Tween-80
[7] = dose: 100.0 mg/kg/injection, schedule: Q04DX003 (ip), vehicle: saline with Tween-80

Measured: T/C

COc1nc2ccccc2nc1N1CC1
inactive: dose: 26.0 mg/kg/injection, schedule: Q01DX009 (ip), vehicle: acetone 103 % of control | dose: 40.0 mg/kg/injection, schedule: Q01DX009 (ip), vehicle: acetone 101 % of control | dose: 60.0 mg/kg/injection, schedule: Q01DX009 (ip), vehicle: acetone 108 % of control | dose: 90.0 mg/kg/injection, schedule: Q01DX009 (ip), vehicle: acetone 101 % of control | dose: 135.0 mg/kg/injection, schedule: Q01DX009 (ip), vehicle: acetone 121 % of control

Cc1ccc(C(=O)c2ccc([N+](=O)[O-])cc2)cc1
inactive: dose: 50.0 mg/kg/injection, schedule: Q01DX001 (ip), vehicle: saline 103 % of control | dose: 100.0 mg/kg/injection, schedule: Q01DX001 (ip), vehicle: saline 101 % of control | dose: 200.0 mg/kg/injection, schedule: Q01DX001 (ip), vehicle: saline 92 % of control | dose: 400.0 mg/kg/injection, schedule: Q01DX001 (ip), vehicle: saline 114 % of control

NC(CSS(=O)(=O)O)=NC1CCCC1
inactive: dose: 12.5 mg/kg/injection, schedule: Q01DX001 (ip), vehicle: carboxymethylcellulose (CMC) 107 % of control | dose: 25.0 mg/kg/injection, schedule: Q01DX001 (ip), vehicle: carboxymethylcellulose (CMC) 101 % of control | dose: 50.0 mg/kg/injection, schedule: Q01DX001 (ip), vehicle: carboxymethylcellulose (CMC) 102 % of control

Cc1ccc(S(=O)(=O)Cl)c(Cl)c1
inactive: [1] 92 % of control | [2] 94 % of control | dose: 200.0 mg/kg/injection, schedule: Q01DX009 (ip), vehicle: saline with Tween-80 91 % of control

COc1ccc(C2=CC=C(c3ccccc3)C2)cc1N
inactive: dose: 100.0 mg/kg/injection, schedule: Q01DX001 (ip), vehicle: Klucel (hydroxypropylcellulose) (HPC) 90 % of control | dose: 200.0 mg/kg/injection, schedule: Q01DX001 (ip), vehicle: Klucel (hydroxypropylcellulose) (HPC) 95 % of control | dose: 400.0 mg/kg/injection, schedule: Q01DX001 (ip), vehicle: Klucel (hydroxypropylcellulose) (HPC) 90 % of control

ON=C(c1ccccn1)c1ccccn1
inactive: dose: 100.0 mg/kg/injection, schedule: Q01DX009 (ip), vehicle: gum acacia 93 % of control | [3] 97 % of control | dose: 200.0 mg/kg/injection, schedule: Q01DX009 (ip), vehicle: gum acacia 88 % of control | [4] 93 % of control | dose: 400.0 mg/kg/injection, schedule: Q01DX009 (ip), vehicle: gum acacia 98 % of control | [5] 95 % of control

Cc1ccc(C)c(NC(=O)Oc2ccc(Cl)cc2Cl)c1
inactive: dose: 25.0 mg/kg/injection, schedule: Q01DX009 (ip), vehicle: Klucel (hydroxypropylcellulose) (HPC) 87 % of control | dose: 50.0 mg/kg/injection, schedule: Q01DX009 (ip), vehicle: Klucel (hydroxypropylcellulose) (HPC) 100 % of control | dose: 100.0 mg/kg/injection, schedule: Q01DX009 (ip), vehicle: Klucel (hydroxypropylcellulose) (HPC) 110 % of control | [3] 90 % of control | [4] 94 % of control | [5] 106 % of control

O=C(O)c1cc(S(=O)(=O)O)cc(Br)c1O
inactive: dose: 100.0 mg/kg/injection, schedule: Q04DX002 (ip), vehicle: Klucel (hydroxypropylcellulose) (HPC) 95 % of control | dose: 200.0 mg/kg/injection, schedule: Q04DX002 (ip), vehicle: Klucel (hydroxypropylcellulose) (HPC) 103 % of control | dose: 400.0 mg/kg/injection, schedule: Q04DX002 (ip), vehicle: Klucel (hydroxypropylcellulose) (HPC) 89 % of control

NC(=O)N/N=C1/C=C2CCCCC2CC1 (stereo unspecified)
inactive: dose: 75.0 mg/kg/injection, schedule: Q01DX001 (ip), vehicle: other 101 % of control | dose: 150.0 mg/kg/injection, schedule: Q01DX001 (ip), vehicle: other 95 % of control | dose: 300.0 mg/kg/injection, schedule: Q01DX001 (ip), vehicle: other 100 % of control

c1ccc(CCN2CCOCC2)nc1
inactive: dose: 100.0 mg/kg/injection, schedule: Q04DX003 (ip), vehicle: saline 109 % of control | dose: 200.0 mg/kg/injection, schedule: Q04DX003 (ip), vehicle: saline 96 % of control

Cc1cc(C2=NCC(C)(C)S2)ccc1O
inactive: dose: 25.0 mg/kg/injection, schedule: Q01DX005 (ip), vehicle: saline with Tween-80 92 % of control | [6] 91 % of control | dose: 50.0 mg/kg/injection, schedule: Q01DX005 (ip), vehicle: saline with Tween-80 92 % of control | [1] 98 % of control | dose: 100.0 mg/kg/injection, schedule: Q01DX005 (ip), vehicle: saline with Tween-80 93 % of control and 105 % of control | [2] 98 % of control | dose: 100.0 mg/kg/injection, schedule: Q04DX002 (ip), vehicle: saline with Tween-80 100 % of control | dose: 200.0 mg/kg/injection, schedule: Q04DX002 (ip), vehicle: saline with Tween-80 96 % of control | dose: 400.0 mg/kg/injection, schedule: Q04DX002 (ip), vehicle: saline with Tween-80 88 % of control

O=Cc1[nH]c(=S)[nH]c(=O)c1Cc1ccc2ccccc2c1
inactive: dose: 100.0 mg/kg/injection, schedule: Q01DX001 (ip), vehicle: saline with Tween-80 104 % of control | dose: 200.0 mg/kg/injection, schedule: Q01DX001 (ip), vehicle: saline with Tween-80 104 % of control

COc1cccc(C2CCCCC2OS(=O)(=O)c2ccc(C)cc2)c1 (stereo unspecified)
inactive: dose: 100.0 mg/kg/injection, schedule: Q01DX001 (ip), vehicle: steriod suspending solution 106 % of control | dose: 200.0 mg/kg/injection, schedule: Q01DX001 (ip), vehicle: steriod suspending solution 101 % of control | dose: 400.0 mg/kg/injection, schedule: Q01DX001 (ip), vehicle: steriod suspending solution 91 % of control

CC12C=CC(CC1)C2(C)C (stereo unspecified)
inactive: dose: 100.0 mg/kg/injection, schedule: Q01DX009 (ip), vehicle: saline 95 % of control | dose: 200.0 mg/kg/injection, schedule: Q01DX009 (ip), vehicle: saline 92 % of control

CCC(=O)c1ccc(OCC(O)CN2CCC(O)(c3ccccc3)CC2)cc1 (stereo unspecified)
inactive: [6] 98 % of control | dose: 25.0 mg/kg/injection, schedule: Q04DX003 (ip), vehicle: saline with Tween-80 97 % of control | [1] 89 % of control | dose: 50.0 mg/kg/injection, schedule: Q04DX003 (ip), vehicle: saline with Tween-80 105 % of control | [2] 95 % of control | [7] 100 % of control

CCCCCCOC(=O)CCCc1ccc(N(CCCl)CCCl)cc1
inactive: dose: 100.0 mg/kg/injection, schedule: Q04DX002 (ip), vehicle: saline 114 % of control | dose: 200.0 mg/kg/injection, schedule: Q04DX002 (ip), vehicle: saline 111 % of control | dose: 400.0 mg/kg/injection, schedule: Q04DX002 (ip), vehicle: saline 124 % of control

O=c1c2cccc3c2-c2c4c(cccc14)cc1cccc(c3=O)c21
inactive: [7] 94 % of control | dose: 200.0 mg/kg/injection, schedule: Q04DX003 (ip), vehicle: saline with Tween-80 89 % of control | dose: 400.0 mg/kg/injection, schedule: Q04DX003 (ip), vehicle: saline with Tween-80 100 % of control

From PubChem BioAssay AID248 (DTP/NCI, 2004)
